Assay results reported in patent EP1154766B1, “USE OF R-ARYL PROPIONIC ACIDS FOR PRODUCING MEDICAMENTS TO TREAT DISEASES IN HUMANS AND ANIMALS, WHEREBY SAID DISEASES CAN BE […] INFLUENCED BY INHIBITING THE ACTIVATION OF NF-KAPPA B” (PAZ Arzneimittel- Entwicklungsgesellschaft mbH, priority 1999, dated 2000).

What was measured:
[1] = test system: postoperative dental pain; conditions: clinical study in patients, literature; cited from earlier work
[2] = test system: NF-κB (p50/p65 Komplex von NF-κB); assay: Electro mobility-shift assay (gel retention analysis) of LPS-induced NF-κB activation in RAW cells; format: cell-based
Description: Die erfindungsgemäßen Arzneimittel auf der Basis von R-Arylpropionsäuren und deren Derivaten gemäß Anspruch 1 als Hemmer der NF-κB-Aktivierung zur Therapie von Erkrankungen, welche durch die Modifizierung der NF-κB-Aktiierung beeinflußt werden, beruht auf folgenden experimentellen Untersuchungen: Abb. 2: Konzentrationsabhängiger Einfluß von R- und S-Flurbiprofen auf die Aktivierung des Transkriptionsfaktors NF-κB in RAW-Zellen. Die Gelretentionsanalyse (Electro Mobility-Shift Assay; DIG Gel Shift Kit, Boehringer Mannheim) zeigt, daß LPS (1 µg/ml) zu einer Aktivierung von NF-κB (p50/p65 Komplex von NF-κB) führt (Spur Nr. 2 und 10). […] Eine densitometrische Auswertung ergab, daß S-Flurbiprofen hinsichtlich dieser Eigenschaften ca. 100 mal weniger potent war (Spur Nr. 11, 12, 13,14, gegen Spur Nr. 10 als Kontrolle). Spur Nr. 1 und 8 zeigen jeweils unstimulierte Kontrollzellen.

[3] = test system: Zymosan-induzierte Rattenpfotenödem; assay: Zymosan-induced rat paw oedema (plethysmograph); format: in vivo, Ratte; conditions: for Pfotenvolumen: rat, intraplantar zymosan, R-Flurbiprofen 1 to 27 mg/kg intraperitoneal, Abb. 3a-c
Description: Da der nukleäre Transkriptionsfaktor NF-κB u.a. für die Bildung, einer Reihe von Enzymen mit proinflammatorischer und ödembildender Eigenschaften verantwortlich ist, wurde der Einfluß von R-Flurbiprofen auf das Zymosan-induzierte Rattenpfotenödem bestimmt (Methode beschrieben bei: Meller ST und Gebhart GF: Intraplantar zymosan as a reliable, quantifiable model of thermal and mechanical hyperalgesia in the rat; European Journal of Pain, 1, 43-52 (1997). Abbildung 3 a - c faßt die Ergebnisse zusammen. Abb. 3a - c: Zeitabhängige Zunahme des Rattenpfotenvolumens (gemessen mit einem Plethysmographen) nach intraplantarer Applikation von Zymosan. Nach Applikation von Zymosan [Meller and Gebhart (s.o.)] in eine Hinterpfote der Ratte kommt es als Zeichen einer Entzündung zur Zunahme des Pfotenvolumens (Placebo-Gruppe, Applikation von Vehicle = Phosphatpuffer (PP)). […] Dieser Effekt war besonders ausgeprägt zwischen der 2. und 6. Stunde nach Zymosan-Applikation. Dexamethason (0,5 mg/kg Körpergewicht), ein bekannter Hemmer der NF-κB Aktivierung, wurde als Positivkontrolle eingesetzt. […] S-Flurbiprofen ist ein bekannter Hemmer der Cyclooxygenasen. Abb. 4: Zusammenfassung der Effekte von 9 mg/kg R-Flurbiprofen, 9 mg/kg S-Flurbiprofen und 0,5 mg/kg Dexamethason gegen Placebo (V) über 24 Stunden.

[4] = test system: NF-κB; assay: Inhibition of NF-κB activation, method not stated; conditions: arylpropionic acid derivatives without notable CoA thioester formation in humans
[5] = test system: akutem Postepisiotomie-Schmerz; assay: Placebo-controlled double-blind study in acute post-episiotomy pain; format: in vivo, Frauen; conditions: single oral dose 25 mg or 100 mg, pain scale 0-3 over 360 min, Abb. 1
Experimental: Abb. 1: Placebo-kontrollierte Doppelblind-Studie an 180 Frauen mit akutem Postepisiotomie-Schmerz (Mittelwertkurven)
Die hospitalisierten Patienten wurden in drei Medikationsgruppen mit je 50 Patienten und einer Placebogruppe (30 Patienten) randomisiert. Jede Patientin erhielt innerhalb 48 Stunden nach der ansonsten normal verlaufenden Entbindung eine Einzeldosis der zu untersuchenden Studienmedikation (25 mg R(-)Flurbiprofen oder 100 mg R(-)Flurbiprofen oder 1000 mg Paracetamol) oder ein Placebo oral verabreicht. Kurz vor der oralen Gabe der Testpräparate bzw. des Placebos und zu genau festgelegten Untersuchungszeitpunkten (15, 30, 45, 60, 120, 180, 240, 300 und 360 Minuten) wurden die Patienten bezüglich ihres Schmerzempfindens befragt. Die Wirksamkeit der einzelnen Präparate wurde anhand einer Schmerzempfindungs-Skala (0 = keine, 1 = mild, 2 = moderat, 3 = stark) beurteilt. Die zeitlichen Verläufe sind in den in Abbildung 1 wiedergegebenen Mittelwertkurven der einzelnen Patientengruppen zusammengefaßt.

[6] = test system: gastrointestinale Verträglichkeit; conditions: studies in humans, literature; cited from earlier work

In the case of `C[C@@H](C(=O)O)c1cccc(C(=O)c2ccccc2)c1` [R-Ketoprofen], the “schmerzlindernde Wirkung” value [1] is listed as “nachgewiesen”.

In the case of `C[C@H](C(=O)O)c1ccc(-c2ccccc2)c(F)c1` [S-Flurbiprofen, reference compound], the “Potenz der Hemmung der NF-κB Aktivierung, mal weniger potent than R-Flurbiprofen” value ([2]; densitometric evaluation of the gel shift, RAW-Zellen, LPS 1 µg/ml) is reported as “ca. 100 mal” and the Pfotenvolumen [3] is reported as “Reduktion des Pfotenvolumens”.

In the case of `COc1ccc2cc([C@H](C)C(=O)O)ccc2c1` [Naproxen], the “Hemmung der Aktivierung von NF-κB” value [4] is reported as “ausgeprägte Hemmung der Aktivierung von NF-κB”.

In the case of `CC(C(=O)O)c1cccc(C(=O)c2ccccc2)c1` (stereo not shown) [Ketoprofen], the “Hemmung der Aktivierung von NF-κB” value [4] is reported as “ausgeprägte Hemmung der Aktivierung von NF-κB”.

For `C[C@@H](C(=O)O)c1ccc(-c2ccccc2)c(F)c1` [R-Flurbiprofen], the “Hemmung der LPS induzierten Aktivierung von NF-κB” value ([2]; RAW-Zellen, LPS 1 µg/ml, micromolar concentrations, Abb. 2) was “waren in der Lage diese LPS induzierte Aktivierung von NF-κB zu hemmen”, the “Hemmung der NF-κB Aktivierung, mal potenter als die entsprechenden S-Enantiomere” value ([2]; relative to the corresponding S-enantiomer) was “ca. 100 mal” and the “Effekte auf das Pfotenvolumen über 24 Stunden gegen Placebo” value ([3]; 9 mg/kg, compared with 0,5 mg/kg Dexamethason, Abb. 4) was “vergleichbar mit denen nach 0,5 mg/kg Dexamethason”. The “Zeitraum, in dem der Effekt auf das Pfotenvolumen besonders ausgeprägt war” value ([3]; hours after zymosan application) was “zwischen der 2. und 6. Stunde”, the Pfotenvolumen [3] was “überraschende Abnahme des Pfotenvolumens” and the “schmerzlindernde Wirkung” value [5] was “nachgewiesen”. The “gastrointestinale Verträglichkeit” value [6] was “gute gastrointestinale Verträglichkeit”.

With `CC(C(=O)O)c1ccc(-c2ccccc2)c(F)c1` (stereo not shown) [Flurbiprofen] the “Hemmung der Aktivierung von NF-κB” value [4] was “ausgeprägte Hemmung der Aktivierung von NF-κB”.
